Assay [1] relates to Thy-1+ T-lymphocytes and complement receptor (CR+) B-lymphocytes differentiation. As to the kind of experiment: In vitro induction of Thy-1+ T cell and CR+ B cell differentiation from nu/nu mouse spleen precursor cells. The conditions noted are these: for Active Concentration Range: induction of Thy-1+ T-lymphocytes and CR+ B-lymphocytes in vitro. The class given is cell-based, nu/nu mice (BALB/c background). As for the experimental part:
To determine the activity and characteristics of the peptide of Example I, determinations were carried out on healthy 5-6 week nu/nu mice of both sexes, the mice being bred on a BALB/c background (thymocytes expressing Thy-1.2 surface antigen) and maintained under conventional conditions. For the antisera, anti Thy-1.2 sera were prepared in Thy-1 congenic mice.
For the induction in vitro of Thy-1^+ T cells or CR^+ B cell differentiation, the induction of thymocyte differentiation from prothymocytes in vitro was performed as described by Komuro and Boyse, (Lancet, 1, 740, 1973), using the acquisition of Thy-1.2 as a marker of T cell differentiation. The induction of CR^+ B cell differentiation from CR^- B cell precursors in vitro was performed under similar conditions using as the assay criterion, the capacity of CR^+ B cells to bind sheep erythrocytes coated with subagglutinating quantities of rabbit antibody and nonlytic complement. Spleen cell populations from healthy nu/nu mice fractionated on discontinuous bovine serum albumin gradients were used as the source of both precursor types (Thy-1^- and CR^-) because they have few or no Thy-1^+ cells and low numbers of CR^+ cells.

For assay [2] the following is noted: reference application; cited from earlier work.

Square brackets hold non-standard residues; d marks the D form. Peptide text beside a SMILES is read from it. Sar = CNCC(=O)O

Consider `NCCCC[C@H](NC(=O)[C@@H](N)CCC(N)=O)C(N)=O` [Example I, H-GLN-LYS-NH2] (H-Gln-Lys-NH2), for which, in assay [1], the “potency relative to the thymopoietin pentapeptide” value is reported as “same potency as the thymopoietin pentapeptide”. The “ubiquitin-like biological activity (in words)” value in assay [1] (induction of Thy-1+ T and CR+ B lymphocyte differentiation) was “selectivity of actions similar to that of ubiquitin”. As for `CNCC(=O)N[C@@H](CCC(N)=O)C(=O)N[C@@H](CCCCN)C(N)=O` [IV, H--SAR--GLN--LYS--NH2] (H-[Sar]-Gln-Lys-NH2), in assay [1], the “Active Concentration Range” value lay within 1 to 10 µg/mL. Regarding `CNCC(=O)N(C)CC(=O)N(C)CC(=O)N[C@@H](CCC(N)=O)C(=O)N[C@@H](CCCCN)C(N)=O` [VI, H--SAR--SAR--SAR--GLN--LYS--NH2] (H-[Sar][Sar][Sar]QK-NH2), in assay [1], the “potency relative to the thymopoietin pentapeptide” value was “approximately 10 million”. On to `CNCC(=O)N(C)CC(=O)N(C)CC(=O)N(C)CC(=O)N[C@@H](CCC(N)=O)C(=O)N[C@@H](CCCCN)C(N)=O` [VII, H--SAR--SAR--SAR--SAR--GLN--LYS--NH2] (H-[Sar][Sar][Sar][Sar]QK-NH2), for which, in assay [1], the “Active Concentration Range” value lay within 1e-06 to 0.0001 µg/mL. For H-ALA-ASN-ILE-GLN-LYS-OH (H-ANIQK-OH), the “concentration at which activity is possessed” value in assay [2] is 0.1 µg/mL.

Regarding H-TYR-ALA-ILE-GLN-LYS-OH (H-YAIQK-OH), the “concentration at which activity is possessed” value in assay [2] is 0.1 µg/mL. As for H-TYR-ASN-ALA-GLN-LYS-OH (H-YNAQK-OH), in assay [2], the “concentration at which activity is possessed” value is 0.1 µg/mL.
